Each structure is given as a SMILES string. Entries after “also recorded” stand apart in the source; their conditions may differ.

This is an account of results in patent US20230390287A1, “MODULATORS OF PD-L1/PD-1 INTERACTION AND USES THEREOF” (Ramot at Tel-Aviv University Ltd., priority 2021, published 2023).

For assay [1], the target named is recombinant human PD-L1 (Homo sapiens (Human), UniProt Q9NZQ7). The assay can be described thus: Differential scanning fluorimetry (DSF) thermal denaturation. The note with it: 100 μM compound, 1% DMSO. It is filed as binding. The method, then: DSF was performed in a C1000 Touch thermal cycler equipped with a CFX96 optical reaction module (Bio Rad). For all fluorescence measurements, samples contained recombinant human PD-L1 (ThermoFisher) at 500 μg/ml in phosphate buffered saline (PBS), pH 7.4, 5% (m/v) Mannitol, 5% (m/v) Trehalose, 0.02% (v/v) Tween® 80, 2.5-fold SYPRO® Orange, 1% (v/v) DMSO (Sigma-Aldrich) and 100 μM of each compound. The PCR plate was sealed with Optical-Quality Sealing Tape (Bio-Rad) and centrifuged at 300 g for 5 minutes. The DSF assay was carried out by increasing the temperature from 20 to 90° C., with a 1 second hold time every 0.2° C. and fluorescence acquisition using the FRET channel, after an initial incubation step of 10 minutes at 20° C. Control experiments in the absence of DMSO and/or compounds were routinely performed in each microplate.
Data were processed using CFX Manager Software V3.0 (Bio-Rad) and the GraphPad Prism 7. Temperature scan curves were fitted to a dose-response sigmoid function (Boltzmann equation) and the melting temperature (Tm values) were obtained from the midpoint of the transition. Normalization of the RFU was also performed to prevent distraction due to different maximum and minimum values upon compounds treatment. The RFU values from different data sets were converted to a common scale 0-1, where 0 represents the fluorescence of the native protein and 1 the fluorescence of the denatured protein. To monitor the binding properties towards each compound, DSF assays were run in the absence and presence of 100 μM compounds using 1% (v/v) DMSO as vehicle control.
To test this hypothesis, the melting temperature (Tm) of the PD-L1 was determined in thermal denaturation assays by differential scanning fluorimetry (DSF) and checked for a shift in the proteins' Tm (ΔTm) in the presence of the PD-L1 inhibitor candidates. The extent of temperature shift is proportional to the compounds' stabilizing effect and thereby used to infer inhibitors' affinity.

Assay [2] relates to MC38 expressing human PD-L1 (MC38-hPD-L1). The assay can be described thus: MC38-hPD-L1 tumor model in humanized PD-1 mice. It is filed as in vivo. As to the method: Male C57BL/6N-Pdcd1tm1^(huPDCD1-ICP11)Geno humanized for PD-1 (6 weeks old) were purchased from genOway and housed in an animal facility.
Male C57BL/6N humanized PD-1 mice were implanted with 1×10^6 MC38 cells expressing humanized PD-L1 (MC38-hPD-L1) subcutaneously in the right flank. Twelve days later, when tumor volumes reached approx. 60 mm^3 (40-110 mm^3) as measured by digital caliper, animals were randomized into the three treatment groups (n=6 per group). Compound 69 was administered via intraperitoneal (i.p.) injection at 10 mg/kg for 10 daily doses between study days 12 and 22. Similarly, vehicle control (5% (v/v) DMSO, 30% (v/v) polyethylene glycol (PEG) 300, 5% (v/v) Tween® 80, and double distilled (dd) H2O) was administered. The αPD-L1 antibody Atezolizumab was administered via i.p. injection at 10 mg/kg thrice weekly between study days 12 and 22. The tumor size and body weight were measured every 3 days. The tumor volume was determined by X^2Y0.5 (X, small diameter; Y, large diameter).
At day 30, the mice were euthanized, and MC38 tumors and spleens were collected. Tumor and spleen single-cell suspensions were obtained by mechanical disruption of the tissues. […] The obtained single-cell suspensions were then stained with fluorochrome-labelled antibodies and analyzed using a Cytek Aurora (Cytek) and FlowJo software (TreeStar). […]

Assay [3] deals with PD-1/PD-L1 interaction (Homo sapiens (Human), UniProt Q9NZQ7). The assay can be described thus: HTRF PD-1/PD-L1 binding assay. It is filed as biochemical. The arrangement: key to HTF assay (100 μM): +: positive compounds using 100 μM on HTRF. (TR-FRET usually uses a lanthanide donor and a delayed reading to cut background.)
Assay [4] deals with PD-1/PD-L1 interaction on A375 cells. The assay can be described thus: Cell-based PD-1/PD-L1 inhibition (accessible PD-L1 by flow cytometry), A375. Also on record: species or system human. The note with it: Homo sapiens, A-375; A375 stimulated with IFN-γ; 72 hours. The method, then: PD-1/PD-L1 Inhibition on Human Melanoma and Breast Cancer Cell Lines:
Cells (0.1×10^6 cells) were tested for PD-1/PD-L1 inhibition by co-incubation of hit compounds, DMSO (background), BMS-202 (Selleckchem) and anti-human PD-L1 (BioxCell, Clone 29E.2A3) (positive controls) for 72 hours in 2 ml DMEM medium. Non-confluent cell cultures were scraped into single-cell suspension, washed with PBS, and counted. Cells were subsequently stained with PD-1 fluorescent proxy for 30 minutes at 4° C., washed twice and resuspended in FACS buffer. Cells were analyzed using BD LSRFortessa (BD Biosciences) and data analyzed with FlowJo software for Mac (FlowJo, LLC 2013-2016). Mean fluorescence intensity (MFI) was derived from each sample. The PD-1/PD-L1 inhibition in cells was measured by a decrease in MFI relative to background.
The remaining accessible PD-L1 was determined by flow cytometry.
A general note: In flow cytometry, cells or beads pass a laser one at a time.

Chain of PD-1/PD-L1 interaction (Q9NZQ7 19-238): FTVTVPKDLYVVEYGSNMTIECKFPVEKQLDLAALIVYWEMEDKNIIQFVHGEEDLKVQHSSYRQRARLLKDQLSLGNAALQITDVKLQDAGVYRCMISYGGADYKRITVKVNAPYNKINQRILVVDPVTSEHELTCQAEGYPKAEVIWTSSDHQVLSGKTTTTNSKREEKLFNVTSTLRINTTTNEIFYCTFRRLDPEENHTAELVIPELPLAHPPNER
Chain of recombinant human PD-L1 (Q9NZQ7 19-238): as above

On to `CCCCCN(CCCCC)C(C)C(=O)c1cc(C)c2ccc3cc(C(C)C)ccc3c2c1.Cl` (centres unmarked) [Compound 69], for which, in assay [1], the “thermal shift / stabilization of PD-L1” value is listed as “stabilization of PD-L1”. For the same compound, in assay [2] (10 mg/kg i.p., 10 daily doses), the “tumor volume reduction relative to vehicle control” value is on record as 93.6%. In addition, the “cytotoxic CD8+ tumor-infiltrating lymphocytes” value in assay [2] (tumors isolated at day 30, flow cytometry) is reported as “significant increase; also recorded: significantly outperformed the monoclonal antibody”. The IC50 (as a rule, the midpoint of a concentration-inhibition curve) in assay [3] (HTRF dose-response starting from 100 μM) was found to be 196 nM; in assay [3] (Table A, HTRF dose-response, NA = Not applicable (No dose-response effect)) it was 196 nM; in assay [3] (Table B, HTRF dose-response, NA = no dose-response effect) it was 196 nM; in assay [4], 1000 nM. Moreover, the “HTF assay (100 μM)” value in assay [3] (compounds at 100 μM, hits defined as at least 50% inhibition of PD-1/PD-L1 interaction) is “+”.
